Source: patent US20100183600A1, “RAF Inhibitors and Their Uses” (ARQULE, INC., priority 2008, published 2010)
Like-named read-outs stand apart in the source and are kept apart here.

Legend:
mutant B-RAF = target: T1, mutant B-RAF (Homo sapiens, UniProt P15056, V600E); assay: Measurement of RAF activity (MEK-1 phosphorylation); assay type: biochemical; settings: for increase in IC50 relative to compound 14: mutant B-RAF
T1 construct: purchased Upstate (Charlottesville, Va.)
Description: Materials: The RAF kinases and the anti-phospho MEK1/2 antibody were from Upstate (Charlottesville, Va.). The RAF substrate used was full length N-terminal GST-MEK-1, which was expressed in E. coli and purified in-house by HPLC. All proteins were aliquoted and stored at −80° C. Superblock™ in phosphate buffered saline (PBS) blocking reagent was form Pierce (cat. #37515). ATP was from Roche (cat. # 19035722). Alkaline Phosphatase-tagged goat anti-rabbit antibody was from Pierce (cat. # 31340).
Methods: All RAF biochemical assays were performed using an assay buffer containing 20 mM MOPS, 5 mM EGTA, 37.5 mM MgCl2, 1 mM DTT and 50 μM ATP. There was 6.25 ng/well mutant B-RAF and 7.5 ng/well MEK-1 in the final assay conditions. Compounds were serially diluted in assay buffer containing 1% DMSO and 20 μl of test compound at a concentration 3-fold more than the final concentration, and were added to a polypropylene V-well reaction plate. Vehicle control wells received buffer only with DMSO at equivalent concentrations to the test wells. […] These reaction plates were incubated at room temperature for 30 minutes. Capture of MEK-1 was initiated by transferring 50 μl of the reaction mixture to a Nunc Maxisorp™ microplate that is designed for non-specific protein capture. After 30 minute capture of MEK-1 at room temperature, this plate was washed with TBST (6×200 μL/well) to fully terminate the reaction. The plate was then blocked for 1 hour by the addition of 100 μl/well of Superblock™ in phosphate buffered saline (PBS) blocking reagent. Plate was again washed with TBST (6 times with 200 μl/well), followed by the addition of 70 μl/well of Upstate anti-phospho MEK ½ diluted 1:1000 in Pierce Superblock (PBS). After a 60 minute incubation, this plate was washed with TBST (6 times with 200 μl/well), and 70 μl of the secondary antibody (Pierce Alkaline Phosphatase tagged goat anti-rabbit) prepared at 1:4000 in Superblock, were added. After a 45 minute incubation at room temperature, the wells of the microplate were washed with TBST (6 times with 200 μl/well), and thereafter 100 μl/well of Attophos™ fluorescent alkaline phosphatase substrate was added according to the manufacturer's instructions (JBL Scientific). Fluorescence was read on a Perkin Elmer Envision multilabel reader, using the following filters: Excitation Filter: CFP430 nM, Emission Filter: Emission Filter 579 nM.

p-Erk (A375) = assay: Cell-based phosphorylation assay with electroblotting readout; design: species or system human; settings: A375 cells; for EC50: Homo sapiens, A-375, 1 hr
From the text: Compounds of the present invention have been screened for their ability to inhibit all isoforms, both wild-type and mutant of RAF kinases (A-RAF, B-RAF and C-RAF) in general, and the mutant B-RAF (V600E) in particular in human cancer cells. A375 is a human melanoma cell line that harbors the most common B-RAF mutation-V600E found in human cancers. The ability of compounds to inhibit RAF kinases in this assay is correlated with the reduction of MEK and ERK phosphorylation, and is therefore a direct indicator of potential in vivo therapeutic activity.
Materials: A375 cells from ATCC were maintained at 37° C., 5% CO2 in DMEM media supplemented with 10% fetal bovine serum, penicillin/streptomycin and fungizone. (Invitrogen)
Methods: Test compounds were dissolved and diluted 1:1000 in DMSO. A375 cells were seeded in six-well tissue culture plates at 5-8×10^5 per well and cultured at 37° C. for 24 h. Cells were incubated with compounds for one hour before being lysed in EPage™ loading buffer (Invitrogen). Lysates were electrophoresed on 8% EPage™ gels and transferred to polyvinylidene difluoride membranes. After incubations with primary and secondary antibodies, the immunostained proteins were detected and quantitated by an Odyssey infrared imager (LI-COR). Analysis was performed by non-linear regression to generate a dose response curve. The calculated IC50 value was the concentration of the test compound that causes a 50% decrease in phospho-MEK and phospho-ERK levels. The primary antibodies used were anti-MEK (Stressgen), anti-ERK (BD Biosciences), anti-phospho-ERK and anti-phospho-MEK (Cell Signaling). The secondary antibodies used were IRDYE800 anti-rabbit, IRDYE 800 anti-mouse (Rockland), AlexaFluor680 anti-mouse and AlexaFluoro680 anti-rabbit (Invitrogen).
A375 cells were treated with 0, 12, 37, 111, 333 and 1000 nM of indicated compounds for 1 hr. The levels of Phospho-ERK and total-ERK were accessed by immunoblotting.

[1] = 50 μM ATP, MEK-1 substrate, read-out: Mut-B-Raf IC50

T1 sequence (P15056 whole entry V600E): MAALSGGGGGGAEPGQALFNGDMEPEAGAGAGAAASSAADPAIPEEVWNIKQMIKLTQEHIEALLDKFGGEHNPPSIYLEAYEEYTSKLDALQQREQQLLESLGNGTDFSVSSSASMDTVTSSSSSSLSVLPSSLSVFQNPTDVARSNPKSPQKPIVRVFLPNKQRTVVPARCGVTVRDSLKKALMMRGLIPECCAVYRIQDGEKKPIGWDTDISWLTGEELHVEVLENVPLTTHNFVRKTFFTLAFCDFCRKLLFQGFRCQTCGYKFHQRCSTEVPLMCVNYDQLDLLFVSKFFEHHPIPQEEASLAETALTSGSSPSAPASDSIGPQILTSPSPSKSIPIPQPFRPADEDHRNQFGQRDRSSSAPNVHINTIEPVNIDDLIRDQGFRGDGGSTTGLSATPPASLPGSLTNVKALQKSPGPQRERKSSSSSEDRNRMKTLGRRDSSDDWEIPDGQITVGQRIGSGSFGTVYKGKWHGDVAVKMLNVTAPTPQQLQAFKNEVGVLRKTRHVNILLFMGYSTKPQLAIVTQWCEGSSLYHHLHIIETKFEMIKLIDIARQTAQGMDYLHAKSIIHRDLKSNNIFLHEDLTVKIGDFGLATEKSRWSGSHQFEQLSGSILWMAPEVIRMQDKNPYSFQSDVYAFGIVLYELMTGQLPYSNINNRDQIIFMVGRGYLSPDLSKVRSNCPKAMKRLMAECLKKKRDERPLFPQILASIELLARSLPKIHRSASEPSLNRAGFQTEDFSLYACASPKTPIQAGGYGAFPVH

| SMILES | IC50 (mutant B-RAF) | EC50 (p-Erk (A375)) | IC50 (mutant B-RAF; [1]) | increase in IC50 relative to compound 14 (mutant B-RAF) | deviation in EC50 (cell-based ERK inhibition) relative to compound 14 (p-Erk (A375)) |
| --- | --- | --- | --- | --- | --- |
| Cn1ccc(S(=O)(=O)N2CCC[C@@H](Nc3nccc(-c4c(-c5ccc(F)c(OP(=O)(O)O)c5)nc5occn45)n3)C2)n1 [Compound 23, (R)-2-fluoro-5-(5-(2-(1-(1-methyl-1H-pyrazol-3-ylsulfonyl)piperidin-3-ylamino)pyrimidin-4-yl)imidazo[2,1-b]oxazol-6-yl)phenyl dihydrogen phosphate] | 1.05 µM | 0.009 µM |  |  |  |
| O=P(O)(O)OCOc1cccc(-c2nc3occn3c2-c2ccnc(NC3CCN(S(=O)(=O)C4CC4)CC3)n2)c1 [Compound 13, (3-(5-(2-(1-(cyclopropylsulfonyl)piperidin-4-ylamino)pyrimidin-4-yl)imidazo[2,1-b]oxazol-6-yl)phenoxy)methyl dihydrogen phosphate] |  | 0.161 µM | > 3.3 µM |  |  |
| Cn1ccc(S(=O)(=O)N2CCC[C@@H](Nc3nccc(-c4c(-c5cccc(OP(=O)(O)O)c5)nc5occn45)n3)C2)n1 [Compound 18, (R)-3-(5-(2-(1-(1-methyl-1H-pyrazol-3-ylsulfonyl)piperidin-3-ylamino)pyrimidin-4-yl)imidazo[2,1-b]oxazol-6-yl)phenyl dihydrogen phosphate] | > 3.3 µM | 0.087 µM |  |  |  |
| O=P(O)(O)Oc1cccc(-c2nc3occn3c2-c2ccnc(NC3CCN(S(=O)(=O)C4CC4)CC3)n2)c1 [Compound 12, 3-(5-(2-(1-(cyclopropylsulfonyl)piperidin-4-ylamino)pyrimidin-4-yl)imidazo[2,1-b]oxazol-6-yl)phenyl dihydrogen phosphate] | > 3.3 µM | 0.177 µM |  |  |  |
| O=P(O)(O)Oc1cccc(-c2nc3sccn3c2-c2ccnc(N[C@@H]3CCCN(S(=O)(=O)c4ccc(Cl)cc4)C3)n2)c1 [Compound 2, (R)-3-(5-(2-(1-(4-chlorophenylsulfonyl)piperidin-3-ylamino)pyrimidin-4-yl)imidazo[2,1-b]thiazol-6-yl)phenyl dihydrogen phosphate] | 1.9 µM | 0.26 µM |  |  |  |
| O=S(=O)(c1ccc(Cl)cc1)N1CCC[C@@H](Nc2nccc(-c3c(-c4cccc(O)c4)nc4sccn34)n2)C1 [Compound 1, (R)-3-(5-(2-(1-(4-chlorophenylsulfonyl)piperidin-3-ylamino)pyrimidin-4-yl)imidazo[2,1-b]thiazol-6-yl)phenol] |  | 0.011 µM | 0.006 µM |  |  |
| O=P(O)(O)Oc1cccc(-c2nc3occn3c2-c2ccnc(NC3CCN(S(=O)(=O)c4ccc(F)cc4)CC3)n2)c1 [Compound 10, 3-(5-(2-(1-(4-fluorophenylsulfonyl)piperidin-4-ylamino)pyrimidin-4-yl)imidazo[2,1-b]oxazol-6-yl)phenyl dihydrogen phosphate] | 1.17 µM | 0.088 µM |  |  |  |
| O=P(O)(O)OCOc1cccc(-c2nc3occn3c2-c2ccnc(N[C@@H]3CCCN(S(=O)(=O)c4ccc(Cl)cc4)C3)n2)c1 [Compound 6, (R)-(3-(5-(2-(1-(4-chlorophenylsulfonyl)piperidin-3-ylamino)pyrimidin-4-yl)imidazo[2,1-b]oxazol-6-yl)phenoxy)methyl dihydrogen phosphate] |  | 0.012 µM | 1.41 µM |  |  |
| Cn1ccc(S(=O)(=O)N2CCC[C@@H](Nc3nccc(-c4c(-c5ccc(F)c(OCOP(=O)(O)O)c5)nc5occn45)n3)C2)n1 [Compound 24, (R)-(2-fluoro-5-(5-(2-(1-(1-methyl-1H-pyrazol-3-ylsulfonyl)piperidin-3-ylamino)pyrimidin-4-yl)imidazo[2,1-b]oxazol-6-yl)phenoxy)methyl dihydrogen phosphate] |  | 0.052 µM | 0.028 µM |  |  |
| Cn1ccc(S(=O)(=O)N2CCC[C@@H](Nc3nccc(-c4c(-c5cccc(OP(=O)(O)O)c5)nc5sccn45)n3)C2)n1 [Compound 15, (R)-3-(5-(2-(1-(1-methyl-1H-pyrazol-3-ylsulfonyl)piperidin-3-ylamino)pyrimidin-4-yl)imidazo[2,1-b]thiazol-6-yl)phenyl dihydrogen phosphate] | 2.41 µM | 0.008 µM |  | ~400 fold | about 2 fold |
| Cn1ccc(S(=O)(=O)N2CCC(Nc3nccc(-c4c(-c5cccc(OCOP(=O)(O)O)c5)nc5occn45)n3)CC2)n1 [Compound 21, (3-(5-(2-(1-(1-methyl-1H-pyrazol-3-ylsulfonyl)piperidin-4-ylamino)pyrimidin-4-yl)imidazo[2,1-b]oxazol-6-yl)phenoxy)methyl dihydrogen phosphate] |  | 0.141 µM | 1.16 µM |  |  |
| Cn1ccc(S(=O)(=O)N2CCC[C@@H](Nc3nccc(-c4c(-c5cccc(OCOP(=O)(O)O)c5)nc5sccn45)n3)C2)n1 [Compound 16, (R)-(3-(5-(2-(1-(1-methyl-1H-pyrazol-3-ylsulfonyl)piperidin-3-ylmino)pyrimidin-4-yl)imidazo[2,1-b]thiazol-6-yl)phenoxy)methyl dihydrogen phosphate] |  | 0.004 µM | 1.16 µM | ~193 fold | ~4 fold |
| O=P(O)(O)OCOc1cccc(-c2nc3sccn3c2-c2ccnc(NC3CCN(S(=O)(=O)c4ccc(Cl)cc4)CC3)n2)c1 [Compound 8, (3-(5-(2-(1-(4-chlorophenylsulfonyl)piperidin-4-ylamino)pyrimidin-4-yl)imidazo[2,1-b]thiazol-6-yl)phenoxy)methyl dihydrogen phosphate] |  | 0.938 µM | 0.405 µM |  |  |
| O=P(O)(O)OCOc1cccc(-c2nc3sccn3c2-c2ccnc(N[C@@H]3CCCN(S(=O)(=O)c4ccc(Cl)cc4)C3)n2)c1 [Compound 3, (R)-(3-(5-(2-(1-(4-chlorophenylsulfonyl)piperidin-3-ylamino)pyrimidin-4-yl)imidazo[2,1-b]thiazol-6-yl)phenoxy)methyl dihydrogen phosphate] |  | 0.071 µM | 0.375 µM |  |  |
| O=P(O)(O)Oc1cccc(-c2nc3occn3c2-c2ccnc(N[C@@H]3CCCN(S(=O)(=O)c4ccc(Cl)cc4)C3)n2)c1 [Compound 5, (R)-3-(5-(2-(1-(4-chlorophenylsulfonyl)piperidin-3-ylamino)pyrimidin-4-yl)imidazo[2,1-b]oxazol-6-yl)phenyl dihydrogen phosphate] | 1.9 µM | 0.127 µM |  |  |  |
